# Data from US20230203081A1, “LINCOSAMIDE ANTIBIOTICS AND USES THEREOF” (President and Fellows of Harvard College, priority 2020, published 2023).
# Read-outs that look alike come from different tables or passages of the source.
# Key:
# Format in all cases: cell-based
# S. aureus ATCC 29213 = test: MIC (broth microdilution or agar dilution, CLSI); conditions: Staphylococcus aureus, read-out: MIC
# Procedure, shortened: (§1)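 Per CLSI, MICs by broth microdilution or agar dilution; strains other than streptococci and anaerobes were sub-cultured overnight at 35° C on blood agar, with a final broth inoculum of 5×10^5 CFU/mL.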
# E. coli LptD = test: MIC (broth microdilution or agar dilution, CLSI); conditions: Escherichia coli, read-out: MIC
# Procedure, shortened: as §1
# S. pyogenes ATCC 19615 = test: MIC (broth microdilution or agar dilution, CLSI); conditions: Streptococcus pyogenes, read-out: MIC
# Procedure, shortened: as §1
# K. pneumoniae ATCC 10031 = test: MIC (broth microdilution or agar dilution, CLSI); conditions: Klebsiella pneumoniae, ATCC10031, K. pneumoniae HAV#008, ATCC 10031; read-out: MIC
# Procedure, shortened: as §1
# [1] = test system: S. aureus ATCC BAA-1707 (MRSA); test: MIC (broth microdilution or agar dilution, CLSI)
# Procedure, shortened: as §1
# S. pneumoniae ATCC 49619 = test: MIC (broth microdilution or agar dilution, CLSI); conditions: Streptococcus pneumoniae, ATCC49619, S. pneumoniae HAV#003, ATCC 49619; read-out: MIC
# Procedure, shortened: as §1
# [2] = test system: E. faecalis MMX 847; cErmB; test: MIC (broth microdilution or agar dilution, CLSI); conditions: cErmB
# Procedure, shortened: as §1
# [3] = test system: S. pyogenes MMX 946; cErmB; test: MIC (broth microdilution or agar dilution, CLSI); conditions: for MIC: cErmB
# Procedure, shortened: as §1
# [4] = test system: S. pneumoniae MMX 3031 cMefA; test: MIC (broth microdilution or agar dilution, CLSI); conditions: Streptococcus pneumoniae, MMX3031CMEFA, read-out: MIC
# Procedure, shortened: as §1
# S. aureus MMX 3035 cErmA = test: MIC (broth microdilution or agar dilution, CLSI)
# Procedure, shortened: as §1
# S. pneumoniae ATCC 6303 = test: MIC (broth microdilution or agar dilution, CLSI)
# Procedure, shortened: as §1
# [5] = test system: S. pneumoniae MMX 3028 cErmB; test: MIC (broth microdilution or agar dilution, CLSI)
# Procedure, shortened: as §1
# E. faecalis ATCC 29212 = test: MIC (broth microdilution or agar dilution, CLSI); conditions: Enterococcus faecalis, read-out: MIC
# Procedure, shortened: as §1
# E. coli ATCC 25922 = test: MIC (broth microdilution or agar dilution, CLSI)
# Procedure, shortened: as §1
# [6] = test system: broad panel of different clinical isolates; test: microbe, parasite or virus in culture
# Procedure, shortened: as §1
smiles,measurement,setting,value
CSC1O[C@H]([C@H](NC(=O)[C@H]2NC[C@@H]3C[C@H](CC(C)C)CCO[C@H]32)[C@H](C)Cl)C(O)[C@@H](O)[C@H]1O (stereo partly shown) [FSA-513018b],MIC,"S. aureus ATCC 29213; ATCC29213, S. aureus ATCC 29213",≤ 0.06 µg/mL
same,MIC,"S. aureus ATCC 29213; ATCC29213, S. aureus HAV#001, ATCC 29213, MP-549",0.06 µg/mL
same,MIC,"E. coli LptD; E. coli HAV#040, LptD",1 µg/mL
same,MIC,E. coli LptD; E. coli LptD,1 µg/mL
same,MIC,"S. pyogenes ATCC 19615; ATCC19615, S. pyogenes ATCC 19615",≤ 0.06 µg/mL
same,MIC,"S. pyogenes ATCC 19615; ATCC19615, S. pyogenes HAV#004, ATCC 19615",0.03 µg/mL
same,MIC,K. pneumoniae ATCC 10031,0.25 µg/mL
same,MIC,"[1]; S. aureus HAV#016, ATCC BAA-1707, MRSA",0.06 µg/mL
same,MIC,"[1]; Staphylococcus aureus, S. aureus ATCC BAA-1707 (MRSA), read-out: MIC",0.06 µg/mL
same,MIC,S. pneumoniae ATCC 49619,0.015 µg/mL
same,MIC,"[2]; E. faecalis HAV#036, MMX 847, mac-resistant",1 µg/mL
same,MIC,"[2]; Enterococcus faecalis, E. faecalis MMX 847, read-out: MIC",1 µg/mL
same,MIC,"[3]; S. pyogenes HAV#035, MMX 946, mac-resistant",0.25 µg/mL
same,MIC lower than that of clindamycin (fold),"[3]; S. pyogenes, c-ermB-mediated resistance","≥ 1,000 ×"
same,MIC,"[3]; Streptococcus pyogenes, S. pyogenes MMX 946, read-out: MIC",0.25 µg/mL
same,MIC,"[4]; S. pneumoniae HAV#034, MMX 3031, cMefA",0.03 µg/mL
same,MIC,[4]; S. pneumoniae MMX 3031 cMefA,≤ 0.06 µg/mL
same,MIC,"S. aureus MMX 3035 cErmA; S. aureus HAV#031, MMX 3035, cErmA",4 µg/mL
same,MIC,"S. aureus MMX 3035 cErmA; Staphylococcus aureus, MMX3035CERMA, S. aureus MMX 3035 cErmA, read-out: MIC",4 µg/mL
same,MIC,"S. pneumoniae ATCC 6303; S. pneumoniae HAV#351, ATCC 6303",0.03 µg/mL
same,MIC,"S. pneumoniae ATCC 6303; Streptococcus pneumoniae, ATCC6303, S. pneumoniae ATCC 6303, read-out: MIC",0.03 µg/mL
same,MIC,"[5]; S. pneumoniae HAV#033, MMX 3028, cErmB",0.25 µg/mL
same,MIC lower than that of clindamycin (fold),"[5]; S. pneumoniae, c-ermB-mediated resistance","≥ 1,000 ×"
same,MIC,"[5]; Streptococcus pneumoniae, MMX3028CERMB, S. pneumoniae MMX 3028 cErmB, read-out: MIC",0.25 µg/mL
same,MIC,"E. faecalis ATCC 29212; ATCC29212, E. faecalis ATCC 29212",≤ 0.06 µg/mL
same,MIC,"E. faecalis ATCC 29212; ATCC29212, E. faecalis HAV#005, ATCC 29212",0.06 µg/mL
same,MIC,"E. coli ATCC 25922; E. coli HAV#006, ATCC 25922",8 µg/mL
same,MIC,"E. coli ATCC 25922; Escherichia coli, ATCC25922, E. coli ATCC 25922, read-out: MIC",8 µg/mL
same,MIC,"[6]; Acinetobacter baumannii, A. baumannii HAV#651, Clinical",4 µg/mL
same,MIC,"[6]; Acinetobacter baumannii, A. baumannii HAV#652 Clinical",8 µg/mL
same,MIC,"[6]; Acinetobacter baumannii, A. baumannii HAV#653, Clinical",4 µg/mL
same,MIC,"[6]; Acinetobacter baumannii, A. baumannii HAV#654, Clinical",8 µg/mL
same,MIC,"[6]; Acinetobacter baumannii, A. baumannii HAV#655, Clinical",8 µg/mL
same,MIC,"[6]; Acinetobacter baumannii, A. baumannii HAV#656, Clinical",16 µg/mL
same,MIC,"[6]; Acinetobacter baumannii, A. baumannii HAV#657, Clinical",4 µg/mL
same,MIC,"[6]; Acinetobacter baumannii, A. baumannii HAV#658, Clinical",4 µg/mL
same,MIC,"[6]; Acinetobacter baumannii, A. baumannii HAV#659, Clinical",8 µg/mL
same,MIC,"[6]; Acinetobacter baumannii, A. baumannii HAV#660, Clinical",16 µg/mL
same,MIC,"[6]; Acinetobacter baumannii, A. baumannii HAV#661, Clinical",8 µg/mL
same,MIC,"[6]; Acinetobacter baumannii, A. baumannii HAV#662, Clinical",8 µg/mL
same,MIC,"[6]; Acinetobacter baumannii, A. baumannii HAV#663, Clinical",4 µg/mL
same,MIC,"[6]; Acinetobacter baumannii, A. baumannii HAV#664, Carbapenem R",16 µg/mL
same,MIC,"[6]; Enterococcus faecalis, E. faecalis HAV#602, Clincal",≤ 0.06 µg/mL
same,MIC,"[6]; Enterococcus faecalis, E. faecalis HAV#607, Clinical",2 µg/mL
same,MIC,"[6]; Enterococcus faecalis, E. faecalis HAV#609, Clinical",2 µg/mL
same,MIC,"[6]; Enterococcus faecalis, E. faecalis HAV#611, Line R & Vanco R",0.125 µg/mL
same,MIC,"[6]; Enterococcus faecalis, E. faecalis HAV#612, Line R",≤ 0.06 µg/mL
same,MIC,"[6]; Enterococcus faecalis, S. faecalis 5060, Line R & Vanco R",0.125 µg/mL
same,MIC,"[6]; Enterococcus faecalis, S. faecalis 5074, Line R",≤ 0.06 µg/mL
same,MIC,"[6]; Enterococcus faecium, E. faecium HAV#317, Clinical",0.25 µg/mL
same,MIC,"[6]; Enterococcus faecium, E. faecium HAV#324, Clinical",1 µg/mL
same,MIC,"[6]; Enterococcus faecium, E. faecium HAV#327, Clinical",0.06 µg/mL
same,MIC,"[6]; Enterococcus faecium, E. faecium HAV#328, Clinical",1 µg/mL
same,MIC,"[6]; Enterococcus faecium, E. faecium HAV#329, Clinical",1 µg/mL
same,MIC,"[6]; Enterococcus faecium, E. faecium HAV#604, Clinical",0.06 µg/mL
